From US20120015988A1, “Sulfone Compounds Which Modulate The CB2 Receptor” (BOEHRINGER INGELHEIM INTERNATIONAL GMBH, priority 2008, published 2012)

molecular target: T1, human CB2R (Homo sapiens, UniProt P34972); test: CB2R mediated modulation of cAMP synthesis; assay type: cell-based; conditions: CHO cells expressing human CB2R; concentration at which 50% of the forskolin-stimulated cAMP synthesis was inhibited; 100% defined by 1 uM CP55940; read-out: CB2 EC50
T1 construct: host or cells: CHO cells
Procedure: B. CB2R Mediated Modulation of Camp Synthesis:
Compounds of the invention were evaluated for their CB2 agonist or inverse agonistic activity in accordance with the following experimental method.
CHO cells expressing human CB2R (Euroscreen) were plated at a density of 5000 cells per well in 384 well plates and incubated overnight at 37° C. After removing the media, the cells were treated with test compounds diluted in stimulation buffer containing 1 mM IBMX, 0.25% BSA and 10 uM Forskolin. The assay was incubated for 30 minutes at 37° C. Cells were lysed and the cAMP concentration was measured using DiscoverX-XS cAMP kit, following the manufacturer's protocol. In this setting, agonists will decrease forskolin induced production of cAMP while inverse agonists will further increase forskolin induced production of cAMP. EC50 of agonists were calculated as follows. The maximal amount of cAMP produced by forskolin compared to the level of cAMP inhibited by 1 uM CP55940 is defined as 100%. The EC50 value of each test compound was determined as the concentration at which 50% of the forskolin-stimulated cAMP synthesis was inhibited. Data was analyzed using a four-parameter logistic model. (Model 205 of XLfit 4.0).

T1 sequence (P34972 whole entry): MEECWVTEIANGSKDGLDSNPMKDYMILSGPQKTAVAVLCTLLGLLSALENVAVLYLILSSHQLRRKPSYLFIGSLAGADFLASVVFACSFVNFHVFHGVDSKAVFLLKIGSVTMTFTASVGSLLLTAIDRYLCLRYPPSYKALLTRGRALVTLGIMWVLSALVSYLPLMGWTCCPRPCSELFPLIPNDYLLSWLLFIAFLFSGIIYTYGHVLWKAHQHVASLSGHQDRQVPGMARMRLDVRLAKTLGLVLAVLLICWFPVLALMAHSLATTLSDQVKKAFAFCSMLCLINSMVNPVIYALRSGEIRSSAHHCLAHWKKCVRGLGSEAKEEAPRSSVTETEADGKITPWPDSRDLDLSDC

Row | SMILES | EC50 [nM]
1 | CC(C)(C)c1cc(-c2nc(C(C)(C)S(=O)(=O)CC3CCOCC3)no2)on1 [Example 38, 5-(3-tert-butyl-isoxazol-5-yl)-3-[1-methyl-1-(tetrahydro-pyran-4-ylmethanesulfonyl)-ethyl]-[1,2,4]oxadiazole] | 210
2 | CC(C)(C)c1cc(-c2nnc(C(C)(C)S(=O)(=O)Cc3ccc(F)cc3)o2)on1 [Example 31, 2-(3-tert-butyl-isoxazol-5-yl)-5-[1-(4-fluoro-phenylmethanesulfonyl)-1-methyl-ethyl]-[1,3,4]oxadiazole] | 162
3 | CC(C)(C)c1cc(-c2nnc(C(C)(C)S(=O)(=O)Cc3ccc(F)cc3)[nH]2)on1 [Example 49, 3-(3-tert-Butyl-isoxazol-5-yl)-5-[1-(4-fluoro-phenylmethanesulfonyl)-1-methyl-ethyl]-4H-[1,2,4]triazole] | 293
4 | CC(C)(C)c1cc(-c2nnc(C(C)(C)S(=O)(=O)c3ccc(Cl)cc3)o2)on1 [Example 22, 2-(3-tert-butyl-isoxazol-5-yl)-5-[1-(4-chloro-benzenesulfonyl)-1-methyl-ethyl]-[1,3,4]oxadiazole] | 5.3
5 | CC(C)(C)c1cc(-c2noc(C(C)(C)S(=O)(=O)c3ccc(C(F)(F)F)cc3)n2)on1 [Example 35, 3-(3-tert-butyl-isoxazol-5-yl)-5-[1-methyl-1-(4-trifluoromethyl-benzenesulfonyl)-ethyl]-[1,2,4]oxadiazole] | 5.9
6 | Cn1nc(C(C)(C)C)cc1-c1nnc(C(C)(C)S(=O)(=O)c2ccc(F)cc2)s1 [Example 41, 2-(5-tert-butyl-2-methyl-2H-pyrazol-3-yl)-5-[1-(4-fluoro-benzenesulfonyl)-1-methyl-ethyl]-[1,3,4]thiadiazole] | 2.5
7 | Cn1nc(C(C)(C)C)cc1-c1coc(C(C)(C)S(=O)(=O)c2ccc(Cl)cc2)n1 [Example 1, 4-(5-tert-butyl-2-methyl-2H-pyrazol-3-yl)-2-[1-(4-chloro-benzenesulfonyl)-1-methyl-ethyl]-oxazole] | 0.92
8 | CC(C)(C)c1cc(-c2coc(C(C)(C)S(=O)(=O)c3ccc(Cl)cc3)n2)no1 [Example 7, 5-tert-butyl-3-{2-[1-(4-chloro-benzenesulfonyl)-1-methyl-ethyl]-oxazol-4-yl}-isoxazole] | 0.9
9 | Cn1nc(C(C)(C)C)cc1-c1coc(C(C)(C)S(=O)(=O)c2ccc(Cl)cc2F)n1 [Example 3, 4-(5-tert-butyl-2-methyl-2H-pyrazol-3-yl)-2-[1-(4-chloro-2-fluoro-benzenesulfonyl)-1-methyl-ethyl]-oxazole] | 3.9
10 | Cn1nc(C(C)(C)C)cc1-c1cnc(C(C)(C)S(=O)(=O)c2ccc(F)cc2)o1 [Example 9, 5-(5-tert-butyl-2-methyl-2H-pyrazol-3-yl)-2-[1-(4-fluoro-benzenesulfonyl)-1-methyl-ethyl]-oxazole] | 5.8
11 | CC(C)(C)c1cc(-c2nnc(C(C)(C)S(=O)(=O)c3ccc(F)cc3)s2)no1 [Example 40, 2-(5-tert-butyl-isoxazol-3-yl)-5-[1-(4-fluoro-benzenesulfonyl)-1-methyl-ethyl]-[1,3,4]thiadiazole] | 17
12 | Cn1nc(C(C)(C)C)cc1-c1nc(C(C)(C)S(=O)(=O)c2ccc(Cl)cc2)no1 [Example 18, 5-(5-tert-butyl-2-methyl-2H-pyrazol-3-yl)-3-[1-(4-chloro-benzenesulfonyl)-1-methyl-ethyl]-[1,2,4]oxadiazole] | 2.7
13 | CC(C)(C)c1cc(-c2nnc(C(C)(C)S(=O)(=O)c3ccc(Cl)cc3)o2)no1 [Example 25, 2-(5-tert-butyl-isoxazol-3-yl)-5-[1-(4-chloro-benzenesulfonyl)-1-methyl-ethyl]-[1,3,4]oxadiazole] | 6.9
14 | CC(C)(C)c1cc(-c2nnc(C(C)(C)S(=O)(=O)c3ccc(F)cc3)o2)no1 [Example 27, 2-(5-tert-butyl-isoxazol-3-yl)-5-[1-(4-fluoro-benzenesulfonyl)-1-methyl-ethyl]-[1,3,4]oxadiazole] | 35
15 | Cn1nc(C(C)(C)C)cc1-c1nc(C(C)(C)S(=O)(=O)CC2CCOCC2)no1 [Example 19, 5-(5-tert-butyl-2-methyl-2H-pyrazol-3-yl)-3-[1-methyl-1-(tetrahydro-pyran-4-ylmethanesulfonyl)-ethyl]-[1,2,4]oxadiazole] | 9.2
16 | CC(C)(C)c1cc(-c2nnc(C(C)(C)S(=O)(=O)CC3CCOCC3)[nH]2)on1 [Example 14, 3-(3-tert-butyl-isoxazol-5-yl)-5-[1-methyl-1-(tetrahydro-pyran-4-ylmethanesulfonyl)-ethyl]-4H-[1,2,4]triazole] | 159
17 | Cn1nc(C(C)(C)C)cc1-c1nnc(C(C)(C)S(=O)(=O)C2CCOCC2)s1 [Example 42, 2-(5-tert-butyl-2-methyl-2H-pyrazol-3-yl)-5-[1-methyl-1-(tetrahydro-pyran-4-sulfonyl)-ethyl]-[1,3,4]thiadiazole] | 117
18 | Cn1nc(C(C)(C)C)cc1-c1nnc(C(C)(C)S(=O)(=O)Cc2ccc(F)cc2)[nH]1 [Example 48, 3-(5-tert-butyl-2-methyl-2H-pyrazol-3-yl)-5-[1-(4-fluoro-phenylmethanesulfonyl)-1-methyl-ethyl]-4H-[1,2,4]triazole] | 129
19 | Cn1nc(C(C)(C)C)cc1-c1nnc(C(C)(C)S(=O)(=O)c2ccc(Cl)cc2)o1 [Example 26, 2-(5-tert-butyl-2-methyl-2H-pyrazol-3-yl)-5-[1-(4-chloro-benzenesulfonyl)-1-methyl-ethyl]-[1,3,4]oxadiazole] | 9
20 | Cn1nc(C(C)(C)C)cc1-c1nnc(C(C)(C)S(=O)(=O)c2ccc(F)cc2)o1 [Example 28, 2-(5-tert-butyl-2-methyl-2H-pyrazol-3-yl)-5-[1-(4-fluoro-benzenesulfonyl)-1-methyl-ethyl]-[1,3,4]oxadiazole] | 16
21 | CC(C)(C)c1cc(-c2nnc(C(C)(C)S(=O)(=O)c3ccc(F)cc3)[nH]2)on1 [Example 45, 3-(3-tert-butyl-isoxazol-5-yl)-5-[1-(4-fluoro-benzenesulfonyl)-1-methyl-ethyl]-4H-[1,2,4]triazole] | 255
22 | CC(C)(C)c1cc(-c2noc(C(C)(C)S(=O)(=O)CC3CCOCC3)n2)on1 [Example 36, 3-(3-tert-butyl-isoxazol-5-yl)-5-[1-methyl-1-(tetrahydro-pyran-4-ylmethanesulfonyl)-ethyl]-[1,2,4]oxadiazole] | 15
23 | Cn1nc(C(C)(C)C)cc1-c1nnc(C(C)(C)S(=O)(=O)CC2CCC(O)CC2)[nH]1 (centres unmarked) [Example 51, 4-{2-[5-(5-tert-butyl-2-methyl-2H-pyrazol-3-yl)-4H-[1,2,4]triazol-3-yl]-propane-2-sulfonylmethyl}-cyclohexanol] | 459
24 | CC(C)(CO)c1cc(-c2nnc(C(C)(C)S(=O)(=O)c3ccc(F)cc3)s2)on1 [Example 43, 2-(5-{5-[1-(4-fluoro-benzenesulfonyl)-1-methyl-ethyl]-[1,3,4]thiadiazol-2-yl}-isoxazol-3-yl)-2-methyl-propan-1-ol] | 175
25 | CC(C)(C)c1cc(-c2nnc(C(C)(C)S(=O)(=O)c3ccc(F)cc3)s2)on1 [Example 39, 2-(3-tert-butyl-isoxazol-5-yl)-5-[1-(4-fluoro-benzenesulfonyl)-1-methyl-ethyl]-[1,3,4]thiadiazole] | 6.7
26 | Cn1nc(C(C)(C)C)cc1-c1coc(C(C)(C)S(=O)(=O)C2CCCCC2)n1 [Example 6, 4-(5-tert-butyl-2-methyl-2H-pyrazol-3-yl)-2-(1-cyclohexanesulfonyl-1-methyl-ethyl)-oxazole] | 371
